A word on the melting point: it is the temperature, or range, at which the solid turns liquid.

Turning to `Nc1nc2ccccc2n1-c1cc(NC2CCCNC2)ncn1` (stereo not shown) [Compound 3], the melting point lay in the range of 87 to 88 °C.

The values are drawn from patent US8076343B2, “Benzimidazoles useful as inhibitors of protein kinases” (Vertex Pharmaceuticals Incorporated, priority 2005, dated 2011).
